Data reported in patent US9233977B2, “Leucine-rich repeat kinase enzyme activity” (Merck Sharp & Dohme Corp., priority 2010, dated 2016).

molecular target: T1, LRRK2 G2019S mutant kinase (Homo sapiens, UniProt Q5S007, G2019S); assay: LRRK2 G2019S LanthaScreen TR-FRET kinase assay; format: biochemical; conditions: LRRK2 G2019S GST-tagged protein, 75 nM Fluorescein-ERM (LRRKtide), 100 μM ATP, 1 hour at room temperature; read-out: IC50 (potency)
T1 construct: GST; purchased Invitrogen PV4882
Method: The final solvent concentration in the assay was 1% DMSO. […] Generation of raw data and workup of data to derive the IC50 (potency) and maximal inhibition at concentrations tested were performed using Merck's Assay Data Analyzer (ADA) software.
The IC50 (potency) was evaluated for the example compounds presented above.

T1 sequence (Q5S007 whole entry G2019S): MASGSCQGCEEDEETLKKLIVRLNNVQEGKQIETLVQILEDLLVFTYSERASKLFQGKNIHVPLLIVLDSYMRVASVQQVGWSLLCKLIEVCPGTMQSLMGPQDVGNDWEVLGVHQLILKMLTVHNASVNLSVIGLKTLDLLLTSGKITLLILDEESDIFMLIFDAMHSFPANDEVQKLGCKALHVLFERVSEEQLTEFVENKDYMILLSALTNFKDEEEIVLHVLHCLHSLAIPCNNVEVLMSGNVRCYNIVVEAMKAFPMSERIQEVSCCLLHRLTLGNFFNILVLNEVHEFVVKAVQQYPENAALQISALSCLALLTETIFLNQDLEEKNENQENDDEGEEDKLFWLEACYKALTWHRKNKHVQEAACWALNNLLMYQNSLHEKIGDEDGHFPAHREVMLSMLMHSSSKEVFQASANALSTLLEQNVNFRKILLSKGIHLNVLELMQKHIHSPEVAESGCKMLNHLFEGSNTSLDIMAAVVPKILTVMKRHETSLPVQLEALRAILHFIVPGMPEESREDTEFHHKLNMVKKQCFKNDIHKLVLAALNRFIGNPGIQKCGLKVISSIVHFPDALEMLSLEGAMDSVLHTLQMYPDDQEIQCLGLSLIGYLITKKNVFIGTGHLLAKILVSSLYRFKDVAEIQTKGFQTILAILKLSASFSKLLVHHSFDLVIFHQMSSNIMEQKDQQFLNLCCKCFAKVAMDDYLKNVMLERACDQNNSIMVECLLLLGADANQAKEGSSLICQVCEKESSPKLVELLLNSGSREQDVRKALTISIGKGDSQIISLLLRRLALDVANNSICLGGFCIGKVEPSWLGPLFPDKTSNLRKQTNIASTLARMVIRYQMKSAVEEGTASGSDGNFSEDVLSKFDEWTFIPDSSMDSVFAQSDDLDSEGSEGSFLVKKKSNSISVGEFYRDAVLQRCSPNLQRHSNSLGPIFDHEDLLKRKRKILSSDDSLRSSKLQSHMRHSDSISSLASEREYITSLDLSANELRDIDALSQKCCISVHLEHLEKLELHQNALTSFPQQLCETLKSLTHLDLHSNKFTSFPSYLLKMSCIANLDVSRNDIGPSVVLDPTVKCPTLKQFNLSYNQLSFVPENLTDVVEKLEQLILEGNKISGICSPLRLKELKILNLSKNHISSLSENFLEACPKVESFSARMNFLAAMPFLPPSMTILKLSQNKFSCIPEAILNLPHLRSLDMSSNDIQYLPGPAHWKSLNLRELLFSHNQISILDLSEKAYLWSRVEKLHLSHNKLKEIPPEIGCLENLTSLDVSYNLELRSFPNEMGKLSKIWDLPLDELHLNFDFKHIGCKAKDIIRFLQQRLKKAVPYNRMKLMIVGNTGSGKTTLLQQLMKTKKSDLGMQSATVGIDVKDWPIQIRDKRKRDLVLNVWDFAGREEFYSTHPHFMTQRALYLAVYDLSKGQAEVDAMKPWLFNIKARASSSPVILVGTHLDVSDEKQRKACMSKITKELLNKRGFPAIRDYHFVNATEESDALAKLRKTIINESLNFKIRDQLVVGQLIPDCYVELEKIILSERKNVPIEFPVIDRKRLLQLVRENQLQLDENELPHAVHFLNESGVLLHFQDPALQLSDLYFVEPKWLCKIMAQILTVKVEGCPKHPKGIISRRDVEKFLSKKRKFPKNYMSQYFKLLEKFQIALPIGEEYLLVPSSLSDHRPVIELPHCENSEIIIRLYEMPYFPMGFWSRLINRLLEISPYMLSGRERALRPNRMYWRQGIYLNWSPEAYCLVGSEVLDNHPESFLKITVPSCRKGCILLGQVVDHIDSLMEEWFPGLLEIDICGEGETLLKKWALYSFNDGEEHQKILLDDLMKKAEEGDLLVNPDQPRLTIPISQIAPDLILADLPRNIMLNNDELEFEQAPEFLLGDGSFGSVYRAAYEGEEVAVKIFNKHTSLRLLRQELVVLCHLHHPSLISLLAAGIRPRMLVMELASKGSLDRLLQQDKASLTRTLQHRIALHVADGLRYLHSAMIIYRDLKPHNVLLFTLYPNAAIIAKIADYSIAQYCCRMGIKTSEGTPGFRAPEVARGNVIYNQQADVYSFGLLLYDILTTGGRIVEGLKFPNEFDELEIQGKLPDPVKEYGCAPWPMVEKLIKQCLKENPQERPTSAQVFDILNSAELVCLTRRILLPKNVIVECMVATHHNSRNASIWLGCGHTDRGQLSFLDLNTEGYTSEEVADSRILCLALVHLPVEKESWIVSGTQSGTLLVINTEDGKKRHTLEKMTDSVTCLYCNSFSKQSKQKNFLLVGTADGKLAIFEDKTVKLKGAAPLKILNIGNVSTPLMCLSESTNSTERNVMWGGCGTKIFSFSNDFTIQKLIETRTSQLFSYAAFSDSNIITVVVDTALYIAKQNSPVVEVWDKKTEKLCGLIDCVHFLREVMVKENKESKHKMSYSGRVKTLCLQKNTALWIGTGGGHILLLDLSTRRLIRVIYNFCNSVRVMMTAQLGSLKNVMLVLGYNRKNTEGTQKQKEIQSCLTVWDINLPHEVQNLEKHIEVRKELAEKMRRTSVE

Row | Compound | IC50 [µM]
1 | CSc1sc(-c2cc[nH]n2)c2c1C(=O)NCC2Cc1ccccc1 (centres unmarked) [Example 25, 7-benzyl-3-(methylsulfanyl)-1-(1H-pyrazol-3-yl)-6,7-dihydrothieno[3,4-c]pyridin-4(5H)-one] | 0.15
2 | O=C1NCCc2c(-c3cc[nH]n3)sc(SCC3CC3)c21 [Example 26, 3-[(cyclopropylmethyl)sulfanyl]-1-(1H-pyrazol-3-yl)-6,7-dihydrothieno[3,4-c]pyridin-4(5)-one] | 0.3
3 | CSc1sc(-c2cc[nH]n2)c2c1C(=O)NC(C(F)(F)F)C2 (centres unmarked) [Example 9, 6-trifiuoromethyl-3-(methylsulfanyl)-1-(1H-pyrazol-3-yl)-6,7-dihydrothieno[3,4-c]pyridin-4(5)-one] | 0.19
4 | CSc1sc(-c2cc[nH]n2)c2c1C(=O)N(CCCCO)CC2 [Example 60, 5-(4-hydroxybutyl)-3-(methylsulfanyl)-1-(1H-pyrazol-3-yl)-6,7-dihydrothieno[3,4-c]pyridin-4(5)-one] | 1.7
5 | CSc1sc(-c2cc[nH]n2)c2c1C(=O)N(CCCCCc1ccccc1)CC2 [Example 74, 5-[(5-phenyl)pentyl]-3-(methylsulfanyl)-1-(1H-pyrazol-3-yl)-6,7-dihydrothieno[3,4-c]pyridin-4(5)-one] | 7.5
6 | CSc1sc(-c2cc[nH]n2)c2c1C(=O)N[C@H](c1cccnc1)C2 [Example 19, (6S)-3-(methylsulfanyl)-6-(3-pyridyl)-1-(1H-pyrazol-3-yl)-6,7-dihydrothieno[3,4-c]pyridin-4(5)-one] | 1.5
7 | CSc1sc(-c2cc[nH]n2)c2c1C(=O)N(CCCCc1ccccc1)CC2 [Example 64, 5-[(4-phenyl)butyl]-3-(methylsulfanyl)-1-(1H-pyrazol-3-yl)-6,7-dihydrothieno[3,4-c]pyridin-4(5)-one] | 5
8 | CSc1sc(-c2cc[nH]n2)c2c1C(=O)N(c1cccc(F)c1)CC2 [Example 82, 5-(3-fluorophenyl)-3-(methylsulfanyl)-1-(1H-pyrazol-3-yl)-6,7-dihydrothieno[3,4-c]pyridin-4(5)-one] | 4
9 | CSc1sc(-c2cc[nH]n2)c2c1C(=O)N(CC1CCCNC1)CC2 (centres unmarked) [Example 65, 3-(methylsulfanyl)-1-(1H-pyrazol-3-yl)-5-(piperidin-3-ylmethyl)-6,7-dihydrothieno[3,4-c]pyridin-4(5H)-one] | 3.4
10 | CCC(C)CSc1sc(-c2cc[nH]n2)c2c1C(=O)N[C@H](C)C2 (some centres unmarked) [Example 49] | 0.12
11 | O=C1NC(C(F)(F)F)Cc2c(-c3cc[nH]n3)sc(SC3CCCC3)c21 (centres unmarked) [Example 35, 6-trifluoromethyl-3-(cyclopentylsulfanyl)-1-(1H-pyrazol-3-yl)-6,7-dihydrothieno[3,4-c]pyridin-4(5)-one] | 0.16
12 | CSc1sc(-c2cc[nH]n2)c2c1C(=O)NC[C@@H]2C [Example 21, (7R)-7-methyl-3-(methylsulfanyl)-1-(1H-pyrazol-3-yl)-6,7-dihydrothieno[3,4-c]pyridin-4(5)-one] | 0.16
13 | CSc1sc(-c2cc[nH]n2)c2c1C(=O)N(CCCCOc1ccccc1)CC2 [Example 68, 3-(methylsulfanyl)-5-(4-phenoxybutyl)-1-(1H-pyrazol-3-yl)-6,7-dihydrothieno[3,4-c]pyridin-4(5)-one] | 3.2
14 | CCN(CC)CCSc1sc(-c2cc[nH]n2)c2c1C(=O)NCC2 [Example 39, 3-{[2-{diethylamino)ethyl]sulfanyl}-1-(1H-pyrazol-3-yl)-6,7-dihydrothieno[3,4-c]pyridin-4(5)-one] | 5.7
15 | CSc1sc(-c2cc[nH]n2)c2c1C(=O)N(c1ccccc1)CC2 [Example 81, 3-(Methylsulfanyl)-5-phenyl-1-(1H-pyrazol-3-yl)-6,7-dihydrothieno[3,4-c]pyridin-4(5H)-one] | 2
16 | CCC(C)CSc1sc(-c2cc[nH]n2)c2c1C(=O)NCC2 (centres unmarked) [Example 44, 3-[(2-methyl)butylsulfanyl]-1-(1H-pyrazol-3-yl)-6,7-dihydrothieno[3,4-c]pyridin-4(5)-one] | 0.13
17 | CSc1sc(-c2cc[nH]n2)c2c1C(=O)N(CCN1CCCCC1)CC2 [Example 80, 3-(methylsulfanyl)-5-[2-(piperidin-1-yl)ethyl]-1-(1H-pyrazol-3-yl)-6,7-dihydrothieno[3,4-c]pyridin-4(5)-one] | 7.8
18 | CNc1sc(-c2cc[nH]n2)c2c1C(=O)N[C@H](C)C2 [Example 100, (6R)-3-(methylamino)-6-methyl-1-(1H-pyrazol-3-yl)-6,7-dihydrothieno[3,4-c]pyridin-4(5H)-one] | 3.1
19 | CSc1sc(-c2cc[nH]n2)c2c1C(=O)N(CC1CCOCC1)CC2 [Example 66, 5-[(4-tetrahydropyranyl)methyl]-3-(methylsulfanyl)-1-(1H-pyrazol-3-yl)-6,7-dihydrothieno[3,4-c]pyridin-4(5)-one] | 3.7

Row | Compound | IC50 [µM]
20 | CC1Cc2c(-c3cc[nH]n3)sc(SC3CCCC3)c2C(=O)N1 (centres unmarked) [Example 31, 6-methyl-3-(cyclopentylsulfanyl)-1-(1H-pyrazol-3-yl)-6,7-dihydrothieno[3,4-c]pyridin-4(5)one] | 0.035
21 | O=C1NC2(CCC2)Cc2c(-c3cc[nH]n3)sc(NC3CCCC3)c21 [Example 88, 3′-(cyclopentylamino)-4′-oxo-1′-(1H-pyrazol-3-yl)-7′H-spiro[cyclobutane-1,6′-thieno[3,4-1]pyridine]-4′(5′H)-one] | 0.12
22 | CCN1CCc2c(-c3cc[nH]n3)sc(SC)c2C1=O [Example 76, 5-ethyl-3-(methylsulfanyl)-1-(1H-pyrazol-3-yl)-6,7-dihydrothieno[3,4-c]pyridin-4(5)-one] | 2.2
23 | CSc1sc(-c2cc[nH]n2)c2c1C(=O)N(CCN1CCOCC1)CC2 [Example 67, 3-(methylsulfanyl)-5-[2-(morpholin-4-yl)ethyl]-1-(1H-pyrazol-3-yl)-6,7-dihydrothieno[3,4-c]pyridin-4(5)-one] | 9.2
24 | CSc1sc(-c2cc[nH]n2)c2c1C(=O)N(CCc1ccccn1)CC2 [Example 78, 3-(methylsulfanyl)-5-[2-(2-pyridyl)ethyl]-1-(1H-pyrazol-3-yl)-6,7-dihydrothieno[3,4-c]pyridin-4(5)-one] | 5.7
25 | CSc1sc(-c2cc[nH]n2)c2c1C(=O)N(C(=O)OC(C)(C)C)C(C)C2 (centres unmarked) [Example 4] | 4.8
26 | O=C1NCCc2c(-c3cc[nH]n3)sc(NC3CCCC3)c21 [Example 90, 3-(cyclopentylamino)-(1H-pyrazol-3-yl)-6,7-dihydrothieno[3,4-c]pyridin-4(5H)-one] | 0.36
27 | C[C@@H]1Cc2c(-c3cc[nH]n3)sc(SCC(=O)O)c2C(=O)N1 [Example 52, (6R)-6-methyl-1-{[4-oxo-1-(1H-pyrazol-3-yl)-4,5,6,7-tetrahydrothieno[3,4-c]pyridin-3-yl]sulfanyl}acetic acid] | 2.7
28 | CSc1sc(-c2cc[nH]n2)c2c1C(=O)N(CC1CCCCO1)CC2 (centres unmarked) [Example 63, 5-[(2-tetrahydropyranyl)methyl]-3-(methylsulfanyl)-1-(1H-pyrazol-3-yl)-6,7-dihydrothieno[3,4-c]pyridin-4(5)-one] | 8.4
29 | CSc1sc(-c2cc[nH]n2)c2c1C(=O)N(CCCCC#N)CC2 [Example 70, 5-[3-(methylsulfanyl)-4-oxo-1-(1H-pyrazol-3-yl)-6,7-dihydrothieno[3,4H)-yl]pentanenitrile] | 2.5
30 | O=C1NCCc2c(-c3cc[nH]n3)sc(Sc3ccccc3)c21 [Example 53, 3-phenylsulfanyl-1-(1H-pyrazol-3-yl)-6,7-dihydrothieno[3,4-c]pyridin-4(5)-one] | 1.5
31 | NCCSc1sc(-c2cc[nH]n2)c2c1C(=O)NCC2 [Example 40] | 4.7
32 | CC(C)CC1Cc2c(-c3cc[nH]n3)sc(NC3CCCC3)c2C(=O)N1 (centres unmarked) [Example 89, 3-(cyclopentylamino)-6-(2-methyl)propyl-1-(1H-pyrazol-3-yl)-6,7-dihydrothieno[3,4-c]pyridin-4(5H)-one] | 0.19
33 | COCC1Cc2c(-c3cc[nH]n3)sc(SC)c2C(=O)N1 (centres unmarked) [Example 11, 6-methoxymethyl-3-(methylsulfanyl)-1-(1H-pyrazol-3-yl)-6,7-dihydrothieno[3,4-c]pyridin-4(5)-one] | 0.34
34 | CC1CNC(=O)c2c(SC3CCCC3)sc(-c3cc[nH]n3)c21 (centres unmarked) [Example 36, 7-methyl-3-(cyclopentylsulfanyl)-1-(1H-pyrazol-3-yl)-6,7-dihydrothieno[3,4-c]pyridin-4(5)-one] | 0.052
35 | O=C1NC2(CCC2)Cc2c(-c3cc[nH]n3)sc(SC3CCCC3)c21 [Example 32, 3′-(cyclopentylsulfanyl)-4′-oxo-1′-(1H-pyrazol-3-yl)-7′H-spiro[cyclobutane-1,6′-thieno[3,4-1]pyridine]-4′(5′H)-one] | 0.14
36 | CCCSc1sc(-c2cc[nH]n2)c2c1C(=O)NCC2 [Example 43, 3-propylsulfanyl-1-(1H-pyrazol-3-yl)-6,7-dihydrothieno[3,4-c]pyridin-4(5)-one] | 0.25
37 | CNc1sc(-c2cc[nH]n2)c2c1C(=O)NC(CC(C)C)C2 (centres unmarked) [Example 95, 3-(methylamino)-6-(2-methyl)propyl-1-(1H-pyrazol-3-yl)-6,7-dihydrothieno[3,4-c]pyridin-4(5H)-one] | 0.47
38 | CSc1sc(-c2cc[nH]n2)c2c1C(=O)N(c1ccc(C)cc1)CC2 [Example 83] | 3.3
